Reference: ChEMBL document CHEMBL1201862, “PubChem BioAssay data set” (2004)
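In this assay, cells in 96-well plates receive the compound at five concentrations for 48 hours. Endpoints are linearly interpolated between the surrounding concentrations. GI50 is the concentration that inhibits growth by half.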 Activity calls are given as the source filed them. Rule as the data show it: active = GI50 up to about 1.1 µM and inactive = higher.

Key:
Test in all cases: NCI tumour cell line growth inhibition, 48 h
OVCAR-3 = tested on: OVCAR-3
SR = tested on: SR
COLO 205 = tested on: COLO 205
TK-10 = tested on: TK-10
HL-60 = tested on: HL-60
HOP-92 = tested on: HOP-92
SK-MEL-28 = tested on: SK-MEL-28
MDA-N = tested on: MDA-N
DU-145 = tested on: DU-145
LOX IMVI = tested on: LOX IMVI
HCT-15 = tested on: HCT-15
OVCAR-5 = tested on: OVCAR-5
Malme-3M = tested on: Malme-3M
K562 = tested on: K562
SF-539 = tested on: SF-539
HT-29 = tested on: HT-29
CCRF-CEM = tested on: CCRF-CEM
SK-MEL-2 = tested on: SK-MEL-2
MDA-MB-231 = tested on: MDA-MB-231
CAKI-1 = tested on: CAKI-1

Structure (SMILES)	GI50 (OVCAR-3)	GI50 (SR)	GI50 (COLO 205)	GI50 (TK-10)	GI50 (HL-60)	GI50 (HOP-92)	GI50 (SK-MEL-28)	GI50 (MDA-N)	GI50 (DU-145)	GI50 (LOX IMVI)	GI50 (HCT-15)	GI50 (OVCAR-5)	GI50 (Malme-3M)	GI50 (K562)	GI50 (SF-539)	GI50 (HT-29)	GI50 (CCRF-CEM)	GI50 (SK-MEL-2)	GI50 (MDA-MB-231)	GI50 (CAKI-1)
O=C(O)/C(=C\c1ccncc1)c1cccc2ccccc12	> 100 µM (inactive)	> 100 µM (inactive)	> 100 µM (inactive)	> 100 µM (inactive)	> 100 µM (inactive)	> 100 µM (inactive)	> 100 µM (inactive)	> 100 µM (inactive)	> 100 µM (inactive)	> 100 µM (inactive)	> 100 µM	> 100 µM (inactive)	> 100 µM (inactive)	> 100 µM (inactive)	> 100 µM (inactive)	> 100 µM (inactive)	> 100 µM (inactive)	> 100 µM (inactive)	> 100 µM (inactive)	–
Cc1cc2oc3c(ccc(=O)n3C)c(=O)c2c(C)c1Cl	42.3 µM (inactive)	38.1 µM (inactive)	73.5 µM (inactive)	> 100 µM (inactive)	37.6 µM (inactive)	50.1 µM (inactive)	26.5 µM (inactive)	52.8 µM (inactive)	56.6 µM (inactive)	49.9 µM (inactive)	77.6 µM	72.9 µM (inactive)	57.7 µM (inactive)	41.9 µM (inactive)	23.8 µM (inactive)	38.3 µM (inactive)	38.1 µM (inactive)	40.6 µM (inactive)	31.8 µM (inactive)	67.5 µM (inactive)
CCCCCCCCCCCC1=NCCN1	95.3 µM (inactive)	19.9 µM (inactive)	19.4 µM (inactive)	> 100 µM (inactive)	–	94 µM (inactive)	> 100 µM (inactive)	> 100 µM (inactive)	74.1 µM (inactive)	3.75 µM (inactive)	15.1 µM	–	–	39.6 µM (inactive)	–	> 100 µM (inactive)	22.9 µM (inactive)	–	23.8 µM (inactive)	–
CC(=O)/N=C1/N(/C=C2\C(=O)Oc3ccccc3C2=O)C(=O)/C(=C/c2ccc(NC(C)=O)cc2)N1C	76 µM (inactive)	> 100 µM (inactive)	> 100 µM (inactive)	–	> 100 µM (inactive)	–	> 100 µM (inactive)	> 100 µM (inactive)	> 100 µM (inactive)	> 100 µM (inactive)	> 100 µM	> 100 µM (inactive)	> 100 µM (inactive)	> 100 µM (inactive)	> 100 µM (inactive)	> 100 µM (inactive)	> 100 µM (inactive)	> 100 µM (inactive)	> 100 µM (inactive)	> 100 µM (inactive)
CCP(=O)(CC)C(Cl)(Cl)C(O)C(C)(C)C (stereo not given)	> 100 µM (inactive)	> 100 µM (inactive)	> 100 µM (inactive)	> 100 µM (inactive)	> 10 µM (inactive)	> 100 µM (inactive)	> 100 µM (inactive)	> 100 µM (inactive)	> 100 µM (inactive)	> 100 µM (inactive)	> 100 µM	> 100 µM (inactive)	–	> 100 µM (inactive)	–	> 100 µM (inactive)	> 100 µM (inactive)	> 100 µM (inactive)	> 100 µM (inactive)	> 100 µM (inactive)
C=CS(=O)(=O)CCN1CC1	> 10 µM (inactive)	> 10 µM (inactive)	> 10 µM (inactive)	> 10 µM (inactive)	> 10 µM (inactive)	> 10 µM (inactive)	> 10 µM (inactive)	> 10 µM (inactive)	> 10 µM (inactive)	> 10 µM (inactive)	> 10 µM	> 10 µM (inactive)	> 10 µM (inactive)	> 10 µM (inactive)	> 10 µM (inactive)	> 10 µM (inactive)	> 10 µM (inactive)	–	> 10 µM (inactive)	> 10 µM (inactive)
OCc1cn(C(c2ccccc2)(c2ccccc2)c2ccccc2)cn1	> 100 µM (inactive)	> 100 µM (inactive)	> 100 µM (inactive)	> 100 µM (inactive)	> 100 µM (inactive)	29.7 µM (inactive)	> 100 µM (inactive)	> 100 µM (inactive)	> 100 µM (inactive)	66.7 µM (inactive)	> 100 µM	> 100 µM (inactive)	–	> 100 µM (inactive)	–	> 100 µM (inactive)	> 100 µM (inactive)	> 100 µM (inactive)	> 100 µM (inactive)	91.6 µM (inactive)
COc1ccc(CC2CCc3nc(N)nc(N)c3C2)cc1OC (stereo not given)	5.47 µM (inactive)	3.7 µM (inactive)	2.94 µM (inactive)	7.6 µM (inactive)	14.8 µM (inactive)	36 µM (inactive)	36.4 µM (inactive)	0.0507 µM (active)	0.681 µM (active)	0.065 µM (active)	0.104 µM	1.51 µM (inactive)	0.83 µM (active)	18.3 µM (inactive)	2.25 µM (inactive)	1.79 µM (inactive)	–	> 57.3 µM (inactive)	12.9 µM (inactive)	2.29 µM (inactive)
Nc1ncc2c(n1)-c1ccccc1OC2N1CCCC1 (stereo not given)	> 100 µM (inactive)	> 100 µM (inactive)	> 100 µM (inactive)	> 100 µM (inactive)	1.9 µM (inactive)	83.9 µM (inactive)	> 100 µM (inactive)	> 100 µM (inactive)	> 100 µM (inactive)	> 100 µM (inactive)	> 100 µM	> 100 µM (inactive)	> 100 µM (inactive)	> 100 µM (inactive)	> 100 µM (inactive)	> 100 µM (inactive)	> 100 µM (inactive)	> 100 µM (inactive)	> 100 µM (inactive)	> 100 µM (inactive)
